# Laboratory results: ChEMBL document CHEMBL3352491, “Novel semicarbazides and ureas of primaquine with bulky aryl or hydroxyalkyl substituents: synthesis, cytostatic and antioxidative activity” (Eur J Med Chem, 2014)
# System: not listed separately
# Experiment: Cytostatic activity against human MIAPaCa2 cells assessed as growth inhibition after 3 to 4 days by MTT assay
# Format: functional, cell-based
# Details: MIA PaCa-2; call rule not given here
row,Compound,IC50
1,COc1cc(NC(C)CCCNC(=O)NNC(=O)NCCNC(c2ccccc2)(c2ccccc2)c2ccccc2)c2ncccc2c1 (stereo not given),5 µM
2,COc1cc(NC(C)CCCNC(=O)Nc2ccc(Cl)c(C(F)(F)F)c2)c2ncccc2c1 (stereo not given),4 µM
3,O=C1NCCN1C(c1ccccc1)(c1ccccc1)c1ccccc1,31 µM
4,COc1ccc(/C(=N/NC(=O)NCCCC(C)Nc2cc(OC)cc3cccnc23)c2ccccc2)cc1 (stereo not given),155 µM
5,COc1cc(NC(C)CCCNC(=O)NNC(=O)NC(CO)(CO)CO)c2ncccc2c1 (stereo not given),> 250 µM

# System: not listed separately
# Experiment: Cytostatic activity against human Molt4/C8 cells assessed as growth inhibition after 3 to 4 days by MTT assay
# Format: functional, cell-based
# Details: MOLT-4
row,Compound,IC50
1,COc1cc(NC(C)CCCNC(=O)NNC(=O)NCCNC(c2ccccc2)(c2ccccc2)c2ccccc2)c2ncccc2c1 (stereo not given),8 µM
2,COc1cc(NC(C)CCCNC(=O)Nc2ccc(Cl)c(C(F)(F)F)c2)c2ncccc2c1 (stereo not given),3.4 µM
3,O=C1NCCN1C(c1ccccc1)(c1ccccc1)c1ccccc1,21 µM
4,COc1ccc(/C(=N/NC(=O)NCCCC(C)Nc2cc(OC)cc3cccnc23)c2ccccc2)cc1 (stereo not given),≥ 250 µM
5,COc1cc(NC(C)CCCNC(=O)NNC(=O)NC(CO)(CO)CO)c2ncccc2c1 (stereo not given),> 250 µM

# System: SW-620
# Experiment: Cytostatic activity against human SW620 cells assessed as growth inhibition after 3 to 4 days by MTT assay
# Format: functional, cell-based
# Details: not given
row,IC50,Compound
1,7 µM,COc1cc(NC(C)CCCNC(=O)NNC(=O)NCCNC(c2ccccc2)(c2ccccc2)c2ccccc2)c2ncccc2c1 (stereo not given)
2,23 µM,COc1cc(NC(C)CCCNC(=O)Nc2ccc(Cl)c(C(F)(F)F)c2)c2ncccc2c1 (stereo not given)
3,≥ 100 µM,O=C1NCCN1C(c1ccccc1)(c1ccccc1)c1ccccc1
4,> 100 µM,COc1ccc(/C(=N/NC(=O)NCCCC(C)Nc2cc(OC)cc3cccnc23)c2ccccc2)cc1 (stereo not given)
5,> 100 µM,COc1cc(NC(C)CCCNC(=O)NNC(=O)NC(CO)(CO)CO)c2ncccc2c1 (stereo not given)

# System: L1210
# Experiment: Cytostatic activity against mouse L1210 cells assessed as growth inhibition after 3 to 4 days by MTT assay
# Format: functional, cell-based
# Details: not given
row,IC50,Compound
1,6.2 µM,COc1cc(NC(C)CCCNC(=O)NNC(=O)NCCNC(c2ccccc2)(c2ccccc2)c2ccccc2)c2ncccc2c1 (stereo not given)
2,3.6 µM,COc1cc(NC(C)CCCNC(=O)Nc2ccc(Cl)c(C(F)(F)F)c2)c2ncccc2c1 (stereo not given)
3,68 µM,O=C1NCCN1C(c1ccccc1)(c1ccccc1)c1ccccc1
4,34 µM,COc1ccc(/C(=N/NC(=O)NCCCC(C)Nc2cc(OC)cc3cccnc23)c2ccccc2)cc1 (stereo not given)
5,> 250 µM,COc1cc(NC(C)CCCNC(=O)NNC(=O)NC(CO)(CO)CO)c2ncccc2c1 (stereo not given)

# Target: Lipoxygenase (Glycine max, UniProt Q39829)
# Experiment: Inhibition of soybean LOX using sodium linoleate as substrate by spectrophotometry
# Details: read-out: IC50
row,IC50,Compound
1,100 µM,COc1cc(NC(C)CCCNC(=O)NNC(=O)NCCNC(c2ccccc2)(c2ccccc2)c2ccccc2)c2ncccc2c1 (stereo not given)
2,60.5 µM,COc1ccc(/C(=N/NC(=O)NCCCC(C)Nc2cc(OC)cc3cccnc23)c2ccccc2)cc1 (stereo not given)

# System: not listed separately
# Experiment: Antioxidant activity assessed as DPPH scavenging activity at 100 uM after 60 mins by spectrophotometry
# Format: physicochemical
# Details: 1 h
row,Activity,Compound
1,41%,COc1cc(NC(C)CCCNC(=O)NNC(=O)NCCNC(c2ccccc2)(c2ccccc2)c2ccccc2)c2ncccc2c1 (stereo not given)
2,21%,COc1cc(NC(C)CCCNC(=O)Nc2ccc(Cl)c(C(F)(F)F)c2)c2ncccc2c1 (stereo not given)
3,Not Active,O=C1NCCN1C(c1ccccc1)(c1ccccc1)c1ccccc1
4,26%,COc1ccc(/C(=N/NC(=O)NCCCC(C)Nc2cc(OC)cc3cccnc23)c2ccccc2)cc1 (stereo not given)
5,40%,COc1cc(NC(C)CCCNC(=O)NNC(=O)NC(CO)(CO)CO)c2ncccc2c1 (stereo not given)

# System: not listed separately
# Experiment: Cytostatic activity against human H460 cells assessed as growth inhibition after 3 to 4 days by MTT assay
# Format: functional, cell-based
# Details: NCI-H460
row,Compound,IC50
1,COc1cc(NC(C)CCCNC(=O)NNC(=O)NCCNC(c2ccccc2)(c2ccccc2)c2ccccc2)c2ncccc2c1 (stereo not given),4 µM
2,COc1cc(NC(C)CCCNC(=O)Nc2ccc(Cl)c(C(F)(F)F)c2)c2ncccc2c1 (stereo not given),28 µM
3,O=C1NCCN1C(c1ccccc1)(c1ccccc1)c1ccccc1,> 100 µM
4,COc1ccc(/C(=N/NC(=O)NCCCC(C)Nc2cc(OC)cc3cccnc23)c2ccccc2)cc1 (stereo not given),> 100 µM
5,COc1cc(NC(C)CCCNC(=O)NNC(=O)NC(CO)(CO)CO)c2ncccc2c1 (stereo not given),> 100 µM

# System: HeLa
# Experiment: Cytostatic activity against human HeLa cells assessed as growth inhibition after 3 to 4 days by MTT assay
# Format: functional, cell-based
# Details: not given
row,IC50,Compound
1,10 µM,COc1cc(NC(C)CCCNC(=O)NNC(=O)NCCNC(c2ccccc2)(c2ccccc2)c2ccccc2)c2ncccc2c1 (stereo not given)
2,3.9 µM,COc1cc(NC(C)CCCNC(=O)Nc2ccc(Cl)c(C(F)(F)F)c2)c2ncccc2c1 (stereo not given)
3,102 µM,O=C1NCCN1C(c1ccccc1)(c1ccccc1)c1ccccc1
4,129 µM,COc1ccc(/C(=N/NC(=O)NCCCC(C)Nc2cc(OC)cc3cccnc23)c2ccccc2)cc1 (stereo not given)
5,> 250 µM,COc1cc(NC(C)CCCNC(=O)NNC(=O)NC(CO)(CO)CO)c2ncccc2c1 (stereo not given)

# System: not listed separately
# Experiment: Antioxidant activity assessed as inhibition of lipid peroxidation at 100 uM by spectrophotometry
# Format: physicochemical
# Details: not given
row,inhibition (INH),Compound
1,88%,COc1cc(NC(C)CCCNC(=O)NNC(=O)NCCNC(c2ccccc2)(c2ccccc2)c2ccccc2)c2ncccc2c1 (stereo not given)
2,61%,COc1cc(NC(C)CCCNC(=O)Nc2ccc(Cl)c(C(F)(F)F)c2)c2ncccc2c1 (stereo not given)
3,20%,O=C1NCCN1C(c1ccccc1)(c1ccccc1)c1ccccc1
4,77%,COc1ccc(/C(=N/NC(=O)NCCCC(C)Nc2cc(OC)cc3cccnc23)c2ccccc2)cc1 (stereo not given)
5,49%,COc1cc(NC(C)CCCNC(=O)NNC(=O)NC(CO)(CO)CO)c2ncccc2c1 (stereo not given)

# System: MCF7
# Experiment: Cytostatic activity against human MCF7 cells assessed as growth inhibition after 3 to 4 days by MTT assay
# Format: functional, cell-based
# Details: not given
row,IC50,Compound
1,2 µM,COc1cc(NC(C)CCCNC(=O)NNC(=O)NCCNC(c2ccccc2)(c2ccccc2)c2ccccc2)c2ncccc2c1 (stereo not given)
2,4 µM,COc1cc(NC(C)CCCNC(=O)Nc2ccc(Cl)c(C(F)(F)F)c2)c2ncccc2c1 (stereo not given)
3,63 µM,O=C1NCCN1C(c1ccccc1)(c1ccccc1)c1ccccc1
4,5 µM,COc1ccc(/C(=N/NC(=O)NCCCC(C)Nc2cc(OC)cc3cccnc23)c2ccccc2)cc1 (stereo not given)
5,28 µM,COc1cc(NC(C)CCCNC(=O)NNC(=O)NC(CO)(CO)CO)c2ncccc2c1 (stereo not given)

# Target: Lipoxygenase (Glycine max) (UniProt Q39829)
# Experiment: Inhibition of soybean LOX using sodium linoleate as substrate at 100 uM by spectrophotometry
# Details: not given
row,inhibition,Compound
1,43%,COc1cc(NC(C)CCCNC(=O)Nc2ccc(Cl)c(C(F)(F)F)c2)c2ncccc2c1 (stereo not given)
2,6%,O=C1NCCN1C(c1ccccc1)(c1ccccc1)c1ccccc1
3,6%,COc1cc(NC(C)CCCNC(=O)NNC(=O)NC(CO)(CO)CO)c2ncccc2c1 (stereo not given)

# System: not listed separately
# Experiment: Antioxidant activity assessed as DPPH scavenging activity at 100 uM after 20 mins by spectrophotometry
# Format: physicochemical
# Details: not given
row,Activity,Compound
1,30%,COc1cc(NC(C)CCCNC(=O)NNC(=O)NCCNC(c2ccccc2)(c2ccccc2)c2ccccc2)c2ncccc2c1 (stereo not given)
2,20%,COc1cc(NC(C)CCCNC(=O)Nc2ccc(Cl)c(C(F)(F)F)c2)c2ncccc2c1 (stereo not given)
3,Not Active,O=C1NCCN1C(c1ccccc1)(c1ccccc1)c1ccccc1
4,19%,COc1ccc(/C(=N/NC(=O)NCCCC(C)Nc2cc(OC)cc3cccnc23)c2ccccc2)cc1 (stereo not given)
5,18%,COc1cc(NC(C)CCCNC(=O)NNC(=O)NC(CO)(CO)CO)c2ncccc2c1 (stereo not given)

# System: CCRF-CEM
# Experiment: Cytostatic activity against human CEM cells assessed as growth inhibition after 3 to 4 days by MTT assay
# Format: functional, cell-based
# Details: not given
row,IC50,Compound
1,4.2 µM,COc1cc(NC(C)CCCNC(=O)NNC(=O)NCCNC(c2ccccc2)(c2ccccc2)c2ccccc2)c2ncccc2c1 (stereo not given)
2,3.1 µM,COc1cc(NC(C)CCCNC(=O)Nc2ccc(Cl)c(C(F)(F)F)c2)c2ncccc2c1 (stereo not given)
3,27 µM,O=C1NCCN1C(c1ccccc1)(c1ccccc1)c1ccccc1
4,10 µM,COc1ccc(/C(=N/NC(=O)NCCCC(C)Nc2cc(OC)cc3cccnc23)c2ccccc2)cc1 (stereo not given)
5,> 250 µM,COc1cc(NC(C)CCCNC(=O)NNC(=O)NC(CO)(CO)CO)c2ncccc2c1 (stereo not given)
